Measured values taken from patent US8507533B2, “Glucagon receptor modulators” (Pfizer Inc., priority 2011, dated 2013).

What was measured:
[1] = target: T1, human glucagon receptor (Homo sapiens (Human), UniProt P47871); test: Human Glucagon SPA Assay (binding of [125I]Glucagon-Cex); conditions: membrane from chem-1 cells stably transfected with the human glucagon receptor, Ki by Cheng-Prusoff equation
[2] = target: T1, human glucagon receptor; test: Glucagon cAMP Assay (Cisbio cAMP detection); format: cell-based; conditions: CHOK1 cells stably transfected with the human glucagon receptor; block of glucagon induced cAMP production; Kb by modified Cheng-Prusoff equation

T1 sequence (P47871 26-477): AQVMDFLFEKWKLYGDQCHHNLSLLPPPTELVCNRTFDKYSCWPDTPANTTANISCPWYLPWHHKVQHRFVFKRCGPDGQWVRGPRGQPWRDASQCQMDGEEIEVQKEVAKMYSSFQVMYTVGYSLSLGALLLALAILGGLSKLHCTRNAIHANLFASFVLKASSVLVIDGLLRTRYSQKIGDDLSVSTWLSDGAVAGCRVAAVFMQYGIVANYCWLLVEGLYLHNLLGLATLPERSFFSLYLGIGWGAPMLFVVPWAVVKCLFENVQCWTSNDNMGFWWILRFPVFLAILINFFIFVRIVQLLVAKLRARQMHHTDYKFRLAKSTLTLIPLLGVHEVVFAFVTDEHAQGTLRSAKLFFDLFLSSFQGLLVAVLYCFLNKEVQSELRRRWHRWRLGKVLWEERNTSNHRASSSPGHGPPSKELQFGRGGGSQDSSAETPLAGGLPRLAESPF

CC1(C)CC([C@H](Nc2ccc(-n3cc(C4CC4)cn3)nc2)c2ccc(C(=O)NCCC(=O)O)cc2)C1 (single isomer, unassigned; isomer 2) [Example 175, N-{-4-[{[6-(4-cyclopropyl-1H-pyrazol-1-yl)pyridin-3-yl]amino}(3,3-dimethylcyclobutyl)methyl]benzoyl}-beta-alanine, Isomer 2] showed a Ki [1] of 28.7 nM and a Kb [2] of 10.5 nM.

CC(C)(C)[C@H](Nc1ccc(-n2cc(C(F)(F)F)cn2)nc1)c1ccc(C(=O)NCCC(=O)O)cc1 (single isomer, unassigned; isomer 2) [Example 180, 3-(4-(2,2-dimethyl-1-((6-(4-(trifluoromethyl)-1H-pyrazol-1-yl)pyridin-3-yl)amino)propyl)benzamido)propanoic acid, Isomer 2] gave a Ki [1] of 10.3 nM and a Kb [2] of 45 nM.

Molecule CC(C)(C)[C@H](Nc1ccc(-n2cnc(C(F)(F)F)c2)nc1)c1ccc(C(=O)NCCC(=O)O)cc1 (single isomer, unassigned; isomer 2) [Example 183, 3-(4-(2,2-dimethyl-1-((6-(4-(trifluoromethyl)-1H-imidazol-1-yl)pyridin-3-yl)amino)propyl)benzamido)propanoic acid, Isomer 2] has a Ki [1] of 53.5 nM and a Kb [2] of 154 nM.

Molecule Cc1nn(-c2ccc(N[C@H](c3ccc(C(=O)NCCC(=O)O)cc3)C3CCCC3)cn2)cc1Cl (single isomer, unassigned; isomer 2) [Example 192, 3-(4-((6-(4-chloro-3-methyl-1H-pyrazol-1-yl)pyridin-3-ylamino)(cyclopentyl)methyl)benzamido)propanoic acid, Isomer 2] has a Ki [1] of 50.3 nM and a Kb [2] of 88.5 nM.

CC(C)c1cn(-c2ccc(NC(c3ccc(C(=O)NCCC(=O)O)cc3)C3CCCC3)cn2)cn1 (centres unmarked) [Example 123, 3-(4-(cyclopentyl(6-(4-isopropyl-1H-imidazol-1-yl)pyridin-3-ylamino)methyl)benzamido)propanoic acid] gave a Ki [1] of 88.4 nM and a Kb [2] of 106 nM.

With CCCC(Oc1ccc(-n2cc3cccc(C)c3n2)cc1)c1ccc(C(=O)NCCC(=O)O)cc1 (centres unmarked) [Example 125, 3-(4-(1-(4-(7-methyl-2H-indazol-2-yl)phenoxy)butyl)benzamido)propanoic acid] the Ki [1] was 98.2 nM and the Kb [2] was 144 nM.

CCCC(Oc1ccc(-n2cc3ccc(C)cc3n2)cc1)c1ccc(C(=O)NCCC(=O)O)cc1 (centres unmarked) [Example 126, 3-(4-(1-(4-(6-methyl-2H-indazol-2-yl)phenoxy)butyl)benzamido)propanoic acid] gave a Ki [1] of 161 nM and a Kb [2] of 212 nM.

CCCC(Oc1ccc(-n2cc3c(C)cccc3n2)cc1)c1ccc(C(=O)NCCC(=O)O)cc1 (centres unmarked) [Example 127, 3-(4-(1-(4-(4-methyl-2H-indazol-2-yl)phenoxy)butyl)benzamido)propanoic acid] showed a Ki [1] of 316 nM and a Kb [2] of 202 nM.

For CCCC(Oc1ccc(-n2cc3cc(C)ccc3n2)cc1)c1ccc(C(=O)NCCC(=O)O)cc1 (centres unmarked) [Example 128, 3-(4-(1-(4-(5-methyl-2H-indazol-2-yl)phenoxy)butyl)benzamido)propanoic acid], the Ki [1] was 208 nM and the Kb [2] was 268 nM.

CCCC(Oc1cc(C)c(-n2cc(Cl)cn2)c(C)c1)c1ccc(C(=O)NCCC(=O)O)cc1 (centres unmarked) [Example 130, (+\−)-3-(4-(1-(4-(4-chloro-1H-pyrazol-1-yl)-3,5-dimethylphenoxy)butyl)benzamido)propanoic acid] gave a Ki [1] of 116 nM and a Kb [2] of 195 nM.

Cc1cc(OC(c2ccc(C(=O)NCCC(=O)O)cc2)C2CCCC2)cc(C)c1-n1cnc(C(F)(F)F)c1 (centres unmarked) [Example 131, (+\−)-3-(4-(cyclopentyl(3,5-dimethyl-4-(4-(trifluoromethyl)-1H-imidazol-1-yl)phenoxy)methyl)benzamido)propanoic acid] was tested, and the Ki [1] was 51 nM and the Kb [2] was 247 nM.

In the case of CCCC(Nc1ccc(-n2cc(-c3ccccc3)cn2)nc1)c1ccc(C(=O)NCCC(=O)O)cn1 (centres unmarked) [Example 132, (+\−)-3-(6-(1-(6-(4-phenyl-1H-pyrazol-1-yl)pyridin-3-ylamino)butyl)nicotinamido)propanoic acid], the Ki [1] is reported as 132 nM and the Kb [2] is reported as 153 nM.

CCCC(Oc1ccc(-n2cc3cccc(Cl)c3n2)cc1)c1ccc(C(=O)NCCC(=O)O)cc1 (centres unmarked) [Example 139, (+\−)-3-(4-(1-(4-(7-chloro-2H-indazol-2-yl)phenoxy)butyl)benzamido)propanoic acid] gave a Ki [1] of 354 nM and a Kb [2] of 147 nM.

For CCCC(Oc1ccc(-n2cc3cc(Cl)ccc3n2)cc1)c1ccc(C(=O)NCCC(=O)O)cc1 (centres unmarked) [Example 140, (+\−)-3-(4-(1-(4-(5-chloro-2H-indazol-2-yl)phenoxy)butyl)benzamido)propanoic acid], the Ki [1] was 62.8 nM and the Kb [2] was 154 nM.

CCCC(Oc1cc(C)c(-n2cnc(C(F)(F)F)c2)c(C)c1)c1ccc(C(=O)NCCC(=O)O)cc1 (centres unmarked) [Example 141, (+\−)-3-(4-(1-(3,5-dimethyl-4-(4-(trifluoromethyl)-1H-imidazol-1-yl)phenoxy)butyl)benzamido)propanoic acid] showed a Ki [1] of 89.5 nM and a Kb [2] of 586 nM.

CCCC(Oc1cc(C)c(-n2cc(C3CC3)cn2)c(C)c1)c1ccc(C(=O)NCCC(=O)O)cc1 (centres unmarked) [Example 144, (+\−)-3-(4-(1-(4-(4-cyclopropyl-1H-pyrazol-1-yl)-3,5-dimethylphenoxy)butyl)benzamido)propanoic acid] showed a Ki [1] of 62.6 nM and a Kb [2] of 174 nM.

For CCCC(Oc1cc(C)c(-n2cc(C(F)(F)F)nn2)c(C)c1)c1ccc(C(=O)NCCC(=O)O)cc1 (centres unmarked) [Example 148, (+\−)-3-(4-(1-(3,5-dimethyl-4-(4-(trifluoromethyl)-1H-1,2,3-triazol-1-yl)phenoxy)butyl)benzamido)propanoic acid], the Ki [1] was 125 nM and the Kb [2] was 423 nM.

For CCCC(Oc1ccc(-n2cc(C(F)(F)F)cn2)cc1C)c1ccc(C(=O)NCCC(=O)O)cc1 (centres unmarked) [Example 159, 3-(4-(1-(2-methyl-4-(4-(trifluoromethyl)-1H-pyrazol-1-yl)phenoxy)butyl)benzamido)propanoic acid], the Ki [1] was 315 nM and the Kb [2] was 730 nM.

With Cc1cc([C@@H](CC(C)C)Nc2ccc(C(=O)NCCC(=O)O)cn2)cc(C)c1-n1cc(C(F)(F)F)cn1 [Example 168, (R)-3-(6-((1-(3,5-dimethyl-4-(4-(trifluoromethyl)-1H-pyrazol-1-yl)phenyl)-3-methylbutyl)amino)nicotinamido)propanoic acid] the Ki [1] was 27.4 nM and the Kb [2] was 185 nM.

Work on Cc1cc([C@H](CC(C)C)Nc2ccc(C(=O)NCCC(=O)O)cn2)cc(C)c1-n1cc(C(F)(F)F)cn1 [Example 169, (S)-3-(6-((1-(3,5-dimethyl-4-(4-(trifluoromethyl)-1H-pyrazol-1-yl)phenyl)-3-methylbutyl)amino)nicotinamido)propanoic acid] yielded a Ki [1] of 193 nM and a Kb [2] of 1150 nM.

CCC[C@H](Oc1cc(C)c(-n2cc3ccccc3n2)c(C)c1)c1ccc(C(=O)NCCC(=O)O)cc1 [Example 187, (S)-3-(4-(1-(4-(2H-indazol-2-yl)-3,5-dimethylphenoxy)butyl)benzamido)propanoic acid] gave a Ki [1] of 47.8 nM and a Kb [2] of 167 nM.

Molecule CC1(C)CC(C(Nc2ccc(-n3cnc(C(F)(F)F)c3)nc2)c2ccc(C(=O)NCCC(=O)O)cc2)C1 (centres unmarked) [Example 188, (+\−)-3-(4-((3,3-dimethylcyclobutyl)(6-(4-(trifluoromethyl)-1H-imidazol-1-yl)pyridin-3-ylamino)methyl)benzamido)propanoic acid] has a Ki [1] of 42.2 nM and a Kb [2] of 106 nM.
